Consider one compound from publication PMC6289299 (Inorganic chemistry, 2018).

Series [1] in a line: physchem. The series is classed as physicochemical.
Series [2] is described as follows: physchem. The series is classed as physicochemical. The source holds these as a separate data set.
Series [3] deals with human carbonic anhydrase II (hCAII) (Homo sapiens, UniProt P00918). The experiment in a line: hCAII assay. The series is classed as biochemical.

In series [1], `O=C(O)c1ccccn1` [Compound 1, picolinic acid] displayed a pKa of less than 1.5. This compound gave a logP in series [2] of less than -2. The compound further yielded a logD in series [2] (pH 7.4) of less than -2. The compound also gave an IC50 in series [3] greater than 1 mM.

By pKa is commonly meant the negative logarithm of the acid dissociation constant. As usually defined, the logP is the decadic logarithm of the partition coefficient of the neutral form, usually between octanol and water. Read a high logP as a more lipophilic compound. One may read the logD as lipophilicity at a set pH, counting ionised and neutral species. A low value points to a more hydrophilic compound. For orientation: IC50 means the concentration needed to halve the response being measured. A low value points to greater potency in that assay.
